Assay results reported in ChEMBL document CHEMBL3739376, “Synthesis and biological evaluation of N-(4-phenylthiazol-2-yl)cinnamamide derivatives as novel potential anti-tumor agents” (Medchemcomm, 2015).
Calls of active or inactive are those of the source. The calls are words filed in the database; no cut-off is given here.

Key:
K562 [1] = test: Cytotoxicity against human K562 cells assessed as inhibition of cell proliferation after 96 hrs by MTT assay; assay type: functional, cell-based; conditions: K562, 96 h
Vero = test: Cytotoxicity against african green monkey Vero cells assessed as inhibition of cell proliferation after 96 hrs by MTT assay; assay type: cell-based; conditions: Chlorocebus sabaeus
[2] = Cytotoxicity against human MV411 cells assessed as inhibition of cell proliferation after 96 hrs by MTT assay; assay type: functional, cell-based; conditions: MV4-11, 96 h
Jurkat [3] = test: Cytotoxicity against human Jurkat cells assessed as inhibition of cell proliferation after 96 hrs by MTT assay; assay type: functional, cell-based
A549 [4] = test: Cytotoxicity against human A549 cells assessed as inhibition of cell proliferation after 96 hrs by MTT assay; assay type: functional, cell-based; conditions: A549, 96 h
MDA-MB-468 = test: Cytotoxicity against human MDA-MB-468 cells assessed as inhibition of cell proliferation after 96 hrs by MTT assay; assay type: functional, cell-based; conditions: MDA-MB-468, 96 h
[5] = Cytotoxicity against human OCI-LY1 cells assessed as inhibition of cell proliferation after 96 hrs by MTT assay; assay type: functional, cell-based; conditions: OCI-Ly1, 96 h
HEK293 = test: Cytotoxicity against HEK293 cells assessed as inhibition of cell proliferation after 96 hrs by MTT assay; assay type: cell-based; conditions: Homo sapiens, HEK293, 96 h
[6] = Cytotoxicity against human LO2 cells assessed as inhibition of cell proliferation after 96 hrs by MTT assay; assay type: cell-based; conditions: L02, 96 h
MCF7 = test: Cytotoxicity against human MCF7 cells assessed as inhibition of cell proliferation after 96 hrs by MTT assay; assay type: functional, cell-based; conditions: MCF7, 96 h
[7] = Cytotoxicity against human Bel7402 cells assessed as inhibition of cell proliferation after 96 hrs by MTT assay; assay type: functional, cell-based; conditions: Bel-7402, 96 h
K562 [8] = test: Induction of apoptosis in human K562 cells at 3.3 uM after 48 hrs by propidium iodide staining-based fluorescence microscopic analysis; assay type: functional
Bel-7402 [9] = test: Induction of apoptosis in human Bel7402 cells at 0.37 uM after 48 hrs by propidium iodide staining-based fluorescence microscopic analysis; assay type: functional
Bel-7402 [10] = test: Induction of apoptosis in human Bel7402 cells at 10 uM after 48 hrs by propidium iodide staining-based fluorescence microscopic analysis; assay type: functional
Bel-7402 [11] = test: Induction of apoptosis in human Bel7402 cells at 1.1 uM after 48 hrs by propidium iodide staining-based fluorescence microscopic analysis; assay type: functional
Jurkat [12] = test: Induction of apoptosis in human Jurkat cells at 3.3 uM after 48 hrs by propidium iodide staining-based fluorescence microscopic analysis; assay type: functional
Bel-7402 [13] = test: Induction of apoptosis in human Bel7402 cells at 3.3 uM after 48 hrs by propidium iodide staining-based fluorescence microscopic analysis; assay type: functional
A549 [14] = test: Induction of apoptosis in human A549 cells at 3.3 uM after 48 hrs by propidium iodide staining-based fluorescence microscopic analysis; assay type: functional
Bel-7402 [15] = test: Induction of apoptosis in human Bel7402 cells after 48 hrs by propidium iodide staining-based fluorescence microscopic analysis; assay type: functional, cell-based
Bel-7402 [16] = test: Induction of apoptosis in human Bel7402 cells assessed as condensed nuclei at 0.37 to 10 uM after 48 hrs by […] staining-based fluorescence microscopic analysis; assay type: functional, cell-based

Cc1ccc(-c2csc(NC(=O)/C=C/c3ccc(N4CCOCC4)cc3)n2)c(C)c1
IC50 (K562 [1]): 5.38 µM

Cc1cc(C)c(-c2csc(NC(=O)/C=C/c3ccc([N+](=O)[O-])cc3)n2)c(C)c1
IC50 (K562 [1]): 32.2 µM

CCOc1ccc(/C=C/C(=O)Nc2nc(-c3c(C)cc(C)cc3C)cs2)cc1
IC50 (K562 [1]): 2.48 µM

O=C(/C=C/c1ccc(N2CCOCC2)cc1)Nc1nc(-c2ccccc2)cs1
IC50 (K562 [1]): 12.6 µM

Cc1ccc(/C=C/C(=O)Nc2nc(-c3c(C)cc(C)cc3C)cs2)cc1
IC50 (K562 [1]): 7.88 µM

Cc1cc(C)c(-c2csc(NC(=O)/C=C/c3ccccc3)n2)c(C)c1
IC50 (K562 [1]): 40.4 µM

Cc1cc(C)c(-c2csc(NC(=O)/C=C/c3ccc(Cl)c(C(F)(F)F)c3)n2)c(C)c1
IC50 (K562 [1]): 3.06 µM

O=C(/C=C/c1ccc(N2CCOCC2)cc1)Nc1nc(-c2ccc(F)cc2)cs1
IC50 (K562 [1]): 7.3 µM

Cc1ccc(-c2csc(NC(=O)/C=C/c3ccc(N4CCOCC4)cc3)n2)cc1
IC50 (K562 [1]): > 90 µM

COc1cc(F)c(-c2csc(NC(=O)/C=C/c3ccc(N4CCOCC4)cc3)n2)c(F)c1
IC50 (K562 [1]): 30.3 µM

Cc1cc(C)c(-c2csc(NC(=O)/C=C/c3ccncc3)n2)c(C)c1
IC50 (K562 [1]): 9.39 µM

Cc1cccc(-c2csc(NC(=O)/C=C/c3ccc(N4CCOCC4)cc3)n2)c1
IC50 (K562 [1]): 7.51 µM

COc1cccc(-c2csc(NC(=O)/C=C/c3ccc(N4CCOCC4)cc3)n2)c1
IC50 (K562 [1]): 25.2 µM

COCCOc1ccc(/C=C/C(=O)Nc2nc(-c3c(C)cc(C)cc3C)cs2)cc1
IC50 (K562 [1]): 1.49 µM

Cc1cc(C)c(-c2csc(NC(=O)/C=C/c3ccc(C(F)(F)F)cc3)n2)c(C)c1
IC50 (Vero): > 90 µM | IC50 [2]: 3.65 µM | IC50 (Jurkat [3]): 1.15 µM | IC50 (A549 [4]): 0.2 µM | IC50 (MDA-MB-468): 1.53 µM | IC50 [5]: 3.69 µM | IC50 (HEK293): > 90 µM | IC50 [6]: > 90 µM | IC50 (K562 [1]): 0.48 µM | IC50 (MCF7): > 30 µM | IC50 [7]: 34.1 µM

COc1cc(/C=C/C(=O)Nc2nc(-c3c(C)cc(C)cc3C)cs2)cc(OC)c1OC
IC50 (K562 [1]): 11.8 µM

CCOc1cc(C)c(-c2csc(NC(=O)/C=C/c3ccc(N4CCOCC4)cc3)n2)c(C)c1
IC50 (K562 [1]): 2.09 µM

COc1ccc(/C=C/C(=O)Nc2nc(-c3c(C)cc(C)cc3C)cs2)cc1
IC50 (K562 [1]): 4.16 µM

Cc1ccccc1-c1csc(NC(=O)/C=C/c2ccc(N3CCOCC3)cc2)n1
IC50 (K562 [1]): 3.74 µM

COc1ccccc1-c1csc(NC(=O)/C=C/c2ccc(N3CCOCC3)cc2)n1
IC50 (K562 [1]): > 90 µM

Cc1cc(C)c(-c2csc(NC(=O)/C=C/c3ccc(C4CC4)cc3)n2)c(C)c1
IC50 (Vero): > 90 µM | IC50 [2]: 1.41 µM | IC50 (Jurkat [3]): 1.24 µM | IC50 (A549 [4]): 1.17 µM | IC50 (MDA-MB-468): 15.7 µM | IC50 [5]: 1.63 µM | IC50 (HEK293): > 90 µM | IC50 [6]: > 90 µM | IC50 (K562 [1]): 0.38 µM | IC50 (MCF7): 7.76 µM | IC50 [7]: 6.58 µM

Cc1cc(C)c(-c2csc(NC(=O)/C=C/c3ccc(N4CCCCC4)cc3)n2)c(C)c1
IC50 (K562 [1]): 4.06 µM

COc1ccc(-c2csc(NC(=O)/C=C/c3ccc(N4CCOCC4)cc3)n2)cc1
IC50 (K562 [1]): 14.6 µM

Cc1cc(C)c(-c2csc(NC(=O)/C=C/c3ccc(Br)cc3)n2)c(C)c1
IC50 (K562 [1]): 4.59 µM

COc1cc(C)c(-c2csc(NC(=O)/C=C/c3ccc(N4CCOCC4)cc3)n2)c(C)c1
IC50 (Vero): > 90 µM | IC50 [2]: 2.73 µM | IC50 (Jurkat [3]): 1.24 µM | IC50 (A549 [4]): 1.56 µM | IC50 (MDA-MB-468): > 30 µM | IC50 [5]: > 30 µM | IC50 (HEK293): > 90 µM | IC50 [6]: > 90 µM | IC50 (K562 [1]): 1 µM | IC50 (MCF7): 1.45 µM | IC50 [7]: 9.65 µM

O=C(/C=C/c1ccc(N2CCOCC2)cc1)Nc1nc(-c2cccc(F)c2)cs1
IC50 (K562 [1]): 5.73 µM

Cc1cc(C)c(-c2csc(NC(=O)/C=C/c3ccc(N4CCOCC4)cc3)n2)c(C)c1
IC50 (Vero): > 90 µM | IC50 [2]: 6.42 µM | IC50 (Jurkat [3]): 9.05 µM | IC50 (A549 [4]): 4.29 µM | IC50 (MDA-MB-468): > 30 µM | IC50 [5]: 11.7 µM | IC50 (HEK293): > 90 µM | IC50 [6]: > 90 µM | IC50 (K562 [1]): 0.61 µM | IC50 (MCF7): 20 µM | IC50 [7]: 10.6 µM

CC(=O)O[C@H]1C(=O)[C@@]2(C)[C@H]([C@H](OC(=O)c3ccccc3)[C@]3(O)C[C@H](OC(=O)[C@H](O)[C@@H](NC(=O)c4ccccc4)c4ccccc4)C(C)=C1C3(C)C)[C@]1(OC(C)=O)CO[C@@H]1C[C@@H]2O [PACLITAXEL]
IC50 [2]: 0.75 µM | IC50 (Jurkat [3]): 0.69 µM | IC50 (A549 [4]): 0.74 µM | IC50 (MDA-MB-468): 0.31 µM | IC50 [5]: 0.18 µM | IC50 (K562 [1]): 1.26 µM | IC50 [7]: > 10 µM

Cc1cc(C)c(-c2csc(NC(=O)/C=C/c3ccc(C(C)(C)C)cc3)n2)c(C)c1
Activity (K562 [8]): 21.04% | Activity (Bel-7402 [9]): 5.37% | Activity (Bel-7402 [10]): 61.35% | IC50 (Vero): > 90 µM | IC50 [2]: 0.11 µM | IC50 (Jurkat [3]): 0.035 µM | Activity (Bel-7402 [11]): 25.37% | IC50 (A549 [4]): 0.27 µM | IC50 (MDA-MB-468): > 30 µM | Activity (Jurkat [12]): 14.64% | Activity (Bel-7402 [13]): 48.15% | IC50 [5]: 1.54 µM | IC50 (HEK293): > 90 µM | Activity (A549 [14]): 23.13% | IC50 [6]: > 90 µM | IC50 (K562 [1]): 0.18 µM | IC50 (MCF7): > 30 µM | Activity (Bel-7402 [15]): Dose-dependent effect | IC50 [7]: 0.74 µM | Activity (Bel-7402 [16]): Active

O=C(/C=C/c1ccc(N2CCOCC2)cc1)Nc1nc(-c2ccccc2F)cs1
IC50 (K562 [1]): 4.18 µM

Cc1cc(C)cc(-c2csc(NC(=O)/C=C/c3ccc(N4CCOCC4)cc3)n2)c1
IC50 (K562 [1]): > 90 µM

Cc1cc(C)c(-c2csc(NC(=O)/C=C/c3ccc(F)cc3)n2)c(C)c1
IC50 (K562 [1]): 14 µM

O=C(/C=C/c1ccc(N2CCOCC2)cc1)Nc1nc(-c2c(F)cc(F)cc2F)cs1
IC50 (K562 [1]): 5.15 µM
